Reference: patent US10470459B2, “Antimicrobial preparations, methods for preparing the same and uses thereof to combat microorganisms” (IPABC LTD, priority 2014, dated 2019)
Like-named read-outs stand apart in the source and are kept apart here.

Assays:
[1] = H2O, 20° C., cited from earlier work
[2] = Critical micelle concentration (CMC); format: physicochemical; details: H2O, 20° C.; approx. conversion of the mM value
Text: The term “critical micelle concentration” refers to the concentration of a surfactant in a polar solvent above which the surfactant molecules will spontaneously arrange as a micelle. In accordance with the invention, this value may be expressed in any convenient units of concentration, with the exception that when CMC values are undergoing comparison, the value is expressed as a molar concentration (i.e. in units of M, mM, μM, etc., as appropriate). In the present context a micelle is considered to be a colloid arrangement of surfactant molecules in a polar solvent in which the hydrophilic head groups are oriented towards the polar solvent in a substantially spherical shape and the hydrophobic tail groups are sequestered to the interior of the sphere. In the present context a reference to the CMC of a surfactant is a reference to the CMC of the surfactant in the conditions of the aqueous liquid composition of the invention (including physical conditions such as temperature), unless otherwise indicated. For convenience, this may be taken as the CMC of the surfactant in isolation in pure water at 20° C. CMC values may be calculated by any convenient means, preferably by one of the methods described in Mukerjee P., et. al, Critical Micelle Concentrations of Aqueous Surfactant Systems, United States Department of Commerce, Nat. Stnd. Ref. Data Ser., Nat. Bur. Stand., February 1971 (U.S.).

[3] = Turbidity of diluted mixtures, OD at 570 nm; format: physicochemical; details: diluted from stock of 100000 ppm AG6210 and/or 25000 ppm ε-polylysine, analysed immediately
Text: In general the experiments described in Examples 2 to 17 comprise two stages. First stage is the preparation of a concentrated solution of the surfactant(s) and crystal substrate in drinking water. This stage may involve the mixing of a pre-prepared stock solution(s) of the surfactant in drinking water and a pre-prepared stock solution of the substrate in drinking water. The exact procedure used is set out in each Example. The second stage is the dilution of aliquots of the stock solution with single aliquots of drinking water in glass vessels to result in diluted mixtures with varying (theoretical) concentrations of surfactant(s) and substrate as recited in the Tables of each Example. The diluted mixtures were incubated for the time and at the temperature recited in each Example before the amount of particulate matter in the mixture was assessed. This assessment was by spectrophotometer set to measure OD at a wavelength of 570 nm in Example 2 and, for Examples 3 to 17, by naked eye upon agitation of the vessel and illumination by electric light. […]
Test mixtures (100 ml) were prepared by pipetting appropriate amounts of the concentrated solution into glass flasks and adjusting the volume to 100 ml with drinking water. Mixtures were analysed immediately by measuring OD at 570 nm. […]

E. coli = assay: Antimicrobial efficacy, CFU count after 30 min contact; format: cell-based; details: ε-polylysine 250 ppm, AG 6210 0
Experimental: 100 μl of an E. coli suspension (˜1.5×10^8 CFUs) was added to 900 μl of a freshly prepared dilute ε-polylysine/AG6210 mixture of the invention (prepared as described above) and incubated for 30 min at room temperature. Reaction was stopped by adding 9 ml of neutraliser. Mixture was then diluted 1:10 and 1:100 and 100 μl of the neat mixture and each dilution was applied to agar plates. Plates were incubated for 48 hrs at 37° C. and CFUs counted.
The antimicrobial efficacy of the following dilute ε-polylysine/AG6210 mixtures, prepared in accordance with the invention, was assessed as described above.

Compound: CCCCCCCCCC[N+](C)(C)CCCCCCCCCC.[Cl-] [di-n-decyldimethyl ammonium chloride]
- CMC [1]: 1.5 mM

Compound: CCCCCCCCCCO[C@@H]1O[C@H](CO)[C@@H](O[C@H]2O[C@H](CO)[C@@H](O)[C@H](O)[C@H]2O)[C@H](O)[C@H]1O [n-decyl-β-D-maltopyranoside]
- CMC [1]: CMC (H2O, 20° C.) of n-decyl-β-D-maltopyranoside: 1.6 mM

Compound: CCCCCCCS[C@@H]1O[C@H](CO)[C@@H](O)[C@H](O)[C@H]1O [n-heptyl-β-D-thioglucoside]
- CMC [1]: CMC (H2O, 20° C.) of n-heptyl-β-D-thioglucoside: 29 mM

Compound: CCCCCCCCC(=O)N(C)C[C@H](O)[C@@H](O)[C@H](O)[C@H](O)CO [n-nonanoyl-N-methylglucamine]
- CMC [1]: CMC (H2O, 20° C.) of n-nonanoyl-N-methylglucamine: 19-25 mM
- CMC ([1]; listed as N-nonanoyl-N-methylglucamine): CMC (H2O, 20° C.) of N-nonanoyl-N-methylglucamine: 19-25 mM

Compound: CCCCCCCCO[C@@H]1O[C@H](CO)[C@@H](O)[C@H](O)[C@H]1O [n-octyl-β-D-glucopyranoside]
- CMC [2]: ~2800 ppm

Compound: CCCCCCCCO[C@@H]1O[C@H](CO)[C@@H](O[C@H]2O[C@H](CO)[C@@H](O)[C@H](O)[C@H]2O)[C@H](O)[C@H]1O [n-octyl-β-D-maltopyranoside]
- CMC [1]: CMC (H2O, 20° C.) of n-octyl-β-D-maltopyranoside: 23 mM

Compound: alkyl-dimethylbenzyl ammonium chloride
- CMC [1]: 0.7 mM

Compound: ε-polylysine
- Turbidity upon dilution (OD at 570 nm) [3]: do not show turbidity
- CFUs in each dilution of E. coli culture (E. coli; dilution 1:1): 100 CFUs
- CFUs in each dilution of E. coli culture (E. coli; dilution 1:10): 40 CFUs
- CFUs in each dilution of E. coli culture (E. coli; dilution 1:100): 25 CFUs
